Measured values as given in patent publication US20230250096A1, “SUBSTITUTED PHENYL-1H-PYRROLO[2,3-c] PYRIDINE DERIVATIVES” (Janssen Pharmaceutica NV, priority 2021, published 2023).

Assays:
[1] = target: T1, menin/MLL (terbium chelate-labeled menin, FITC-MBM1 peptide) (Homo sapiens, UniProt O00255, T541A); test: Menin/MLL homogenous time-resolved fluorescence (HTRF) assay; assay type: binding; conditions: 30 min incubation
T1 construct: Menin (a.a 1-610-6xhis tag, 2.3 mg/mL in 20 mM Hepes)
T1 sequence (O00255 with tags, fused parts or gaps T541A): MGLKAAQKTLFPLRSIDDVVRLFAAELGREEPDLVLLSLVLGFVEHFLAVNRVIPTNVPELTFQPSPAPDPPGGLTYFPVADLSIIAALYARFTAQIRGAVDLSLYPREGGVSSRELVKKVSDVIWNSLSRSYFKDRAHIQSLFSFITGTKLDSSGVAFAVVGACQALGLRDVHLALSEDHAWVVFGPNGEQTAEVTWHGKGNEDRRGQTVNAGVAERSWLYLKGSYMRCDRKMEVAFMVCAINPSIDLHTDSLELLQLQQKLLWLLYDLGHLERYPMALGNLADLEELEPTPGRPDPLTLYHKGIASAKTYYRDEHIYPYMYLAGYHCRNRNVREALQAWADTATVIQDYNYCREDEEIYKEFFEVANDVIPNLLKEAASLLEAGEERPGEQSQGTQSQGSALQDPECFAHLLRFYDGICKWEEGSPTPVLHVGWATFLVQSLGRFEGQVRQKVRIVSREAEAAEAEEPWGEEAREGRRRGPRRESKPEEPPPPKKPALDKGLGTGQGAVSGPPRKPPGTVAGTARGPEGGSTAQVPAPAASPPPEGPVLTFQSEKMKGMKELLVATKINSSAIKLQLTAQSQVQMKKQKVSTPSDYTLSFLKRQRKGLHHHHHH
Description: 1) Menin/MLL Homogenous Time-Resolved Fluorescence (HTRF) Assay
To an untreated, white 384-well microtiter plate was added 40 nL 200× test compound in DMSO and 4 μL 2× terbium chelate-labeled menin (vide infra for preparation) in assay buffer (40 mM Tris HCl, pH 7.5, 50 mM NaCl. 1 mM DTT (dithiothreitol) and 0.05% Pluronic F-127). After incubation of test compound and terbium chelate-labeled menin for 30 min at ambient temperature, 4 μL 2×FITC-MBM1 peptide (FITC-β-alanine-[…]-NH2) (“FITC” means fluorescein isothiocyanate) in assay buffer was added, the microtiter plate centrifuged at 1000 rpm for 1 min and the assay mixtures incubated for 15 min at ambient temperature. The relative amount of menin FITC-MBM1 complex present in an assay mixture is determined by measuring the homogenous time-resolved fluorescence (HTRF) of the terbium/FITC donor/acceptor fluorphore pair using an EnVision microplate reader (ex. 337 nm/terbium em. 490 nm/FITC em. 520 nm) at ambient temperature. The degree of fluorescence resonance energy transfer (the HTRF value) is expressed as the ratio of the fluorescence emission intensities of the FITC and terbium fluorophores (F^em520 nm/F^em490 nm). The final concentrations of reagents in the binding assay are […] terbium chelate-labeled menin, 75 nM FITC-MBM1 peptide and 0.5% DMSO in assay buffer. Dose-response titrations of test compounds are conducted using an 11 point, four-fold serial dilution scheme, starting typically at 10 μM.
Compound potencies were determined by first calculating % inhibition at each compound concentration according to equation 1:
% inhibition=((HC−LC)−(HTRF^compound−LC))/(HC−LC))*100 (Eqn 1)
Where LC and HC are the HTRF values of the assay in the presence or absence of a saturating concentration of a compound that competes with FITC-MBM1 for binding to menin, and HTRF^compound is the measured HTRF value in the presence of the test compound. HC and LC HTRF values represent an average of at least 10 replicates per plate.
% inhibition=Bottom+(Top−Bottom)/(1+10^((log/C50−log[cmpd])*h)) (Eqn 2)
Where Bottom and Top are the lower and upper asymptotes of the dose-response curve, respectively, IC50 is the concentration of compound that yields 50% inhibition of signal and h is the Hill coefficient.
Preparation of Terbium cryptate labeling of Menin: Menin (a.a 1-610-6xhis tag, 2.3 mg/mL in 20 mM Hepes (2-[4-(2-Hydroxyethyl)-1-piperazinyl]ethane sulfonic acid), 80 mM NaCl, 5 mM DTT (Dithiothreitol), pH 7.5) was labeled with terbium cryptate as follows. 200 μg of Menin was buffer exchanged into 1×Hepes buffer. 6.67 μM Menin was incubated with 8-fold molar excess NHS (N-hydroxysuccinimide)-terbium cryptate for 40 minutes at room temperature. Half of the labeled protein was purified away from free label by running the reaction over a NAP5 column with elution buffer (0.1M Hepes, pH 7+0.1% BSA (bovine serum albumin)). The other half was eluted with 0.1 M phosphate buffered saline (PBS), pH7. 400 μl of eluent was collected for each, aliquoted and frozen at −80° C. The final concentration of terbium-labeled Menin protein was 115 μg/mL in Hepes buffer and 85 μg/mL in PBS buffer, respectively.

[2] = test system: MEIS1 mRNA expression; test: MEIS1 mRNA expression assay (Quantigene Singleplex) in MOLM14 cells; assay type: cell-based, human; conditions: 48 hours incubation
Description: 2b) MEIS1 mRNA Expression Assay
MEIS1 mRNA expression upon treatment of compound was examined by Quantigene Singleplex assay (Thermo Fisher Scientific). This technology allows for direct quantification of mRNA targets using probes hybridizing to defined target sequences of interest and the signal is detected using a Multimode plate reader Envision (PerkinElmer). The MOLM14 cell line was used for this experiment. Cells were plated in 96-well plates at 3,750 cells/well in the presence of increasing concentrations of compounds. After incubation of 48 hours with compounds, cells were lysed in lysis buffer and incubated for 45 minutes at 55° C. Cell lysates were mixed with human MEIS specific capture probe or human RPL28 (Ribosomal Protein L28) specific probe as a normalization control, as well as blocking probes. Cell lysates were then transferred to the custom assay hybridization plate (Thermo Fisher Scientific) and incubated for 18 to 22 hours at 55° C. Subsequently, plates were washed to remove unbound materials followed by sequential addition of preamplifiers, amplifiers, and label probe. Signals (═gene counts) were measured with a Multimode plate reader Envision. IC50S were calculated by dose-response modelling using appropriate software. For all non-housekeeper genes response equal counts corrected for background and relative expression. For each sample, each test gene signal (background subtracted) was divided by the normalization gene signal (RPL28: background subtracted). Fold changes were calculated by dividing the normalized values for the treated samples by the normalized values for the DMSO treated sample. Fold changes of each target gene were used for the calculation of IC50S.

IC50 [1] [nM]	IC50 ([2]; Homo sapiens, MOLM-14, 48 h) [nM]	IC50 [2] [nM]	Compound
~0.49	> 1000		CC(=O)N1C[C@@H]2CN([C@H]3C[C@@H](CN4CC[C@@H](Cc5cn(-c6ccc(F)cc6C(=O)N(C)C(C)C)c6cncc(C)c56)C4)C3)C[C@H]2C1 (single isomer, unassigned) [Compound 30]
0.052	~470		CC(=O)N1C[C@@H]2CN([C@H]3C[C@@H](CN4CC[C@H](Cc5cn(-c6ccc(F)cc6C(=O)N(C)C(C)C)c6cncc(C)c56)C4)C3)C[C@H]2C1 (single isomer, unassigned) [Compound 31]
0.047	92		Cc1cncc2c1c(C[C@@H]1CCN(CC3COC3)C1)cn2-c1ccc(F)cc1C(=O)N(C)C(C)C (single isomer, unassigned) [Compound 46]
0.042	55		Cc1cncc2c1c(C[C@H]1CCN(CC3COC3)C1)cn2-c1ccc(F)cc1C(=O)N(C)C(C)C (single isomer, unassigned) [Compound 47]
0.043	32		Cc1cncc2c1c(CC1CCN(C[C@H]3CC[C@H](NS(C)(=O)=O)CC3)C1)cn2-c1ccc(F)cc1C(=O)N(C)C(C)C (single isomer, unassigned) [Compound 68]
0.173	182		CC(=O)N[C@H]1CC[C@H](CN2CCC(Cc3cn(-c4ccc(F)cc4C(=O)N(C)C(C)C)c4cncc(C)c34)C2)CC1 (single isomer, unassigned) [Compound 72]
0.057	101		CC(=O)N[C@H]1CC[C@H](CN2CC[C@H](Cc3cn(-c4ccc(F)cc4C(=O)N(C)C(C)C)c4cncc(C)c34)C2)CC1 (single isomer, unassigned) [Compound 73]
0.546		669	CN=S(=O)(c1cc(F)ccc1-n1cc(CC2CCN(CC3CCOCC3)C2)c2c(C)cncc21)C(C)C (single isomer, unassigned) [Compound 77c]
1.22	~690		Cc1cncc2c1c(C[C@@H]1CCN(CC3CCOCC3)C1)cn2-c1ccc(F)cc1[S@](=N)(=O)C(C)C (single isomer, unassigned) [Compound 78a]
0.552		361	Cc1cncc2c1c(C[C@@H]1CCN(CC3CCOCC3)C1)cn2-c1ccc(F)cc1[S@](=N)(=O)C(C)C (single isomer, unassigned) [Compound 78b]
0.875	538		Cc1cncc2c1c(C[C@H]1CCN(CC3CCOCC3)C1)cn2-c1ccc(F)cc1[S@@](=N)(=O)C(C)C (single isomer, unassigned) [Compound 78d]

More lines, now with the values behind:

Compound	IC50 [1] [nM]	IC50 ([2]; Homo sapiens, MOLM-14, 48 h) [nM]	IC50 [2] [nM]
CC(=O)N1C[C@@H]2CN(CCC[C@@H](C(C)C)N3CC[C@H](Cc4cn(-c5ccc(F)cc5C(=O)N(C)C(C)C)c5cncc(Cl)c45)C3)C[C@H]2C1 (single isomer, unassigned) [Compound 19b]	0.065	128	
CC[C@H]([C@H]1C[C@@H](N2C[C@H]3CN(C(C)=O)C[C@@H]3C2)C1)N1CC[C@H](Cc2cn(-c3ccc(F)cc3C(=O)N(C)C(C)C)c3cncc(Cl)c23)C1 (single isomer, unassigned) [Compound 27a]	0.012	< 4.1	
CC[C@H]([C@H]1C[C@H](N2C[C@H]3CN(C(C)=O)C[C@@H]3C2)C1)N1CC[C@H](Cc2cn(-c3ccc(F)cc3C(=O)N(C)C(C)C)c3cncc(Cl)c23)C1 (single isomer, unassigned) [Compound 27b]	0.038	19	
CC[C@@H]([C@H]1C[C@@H](N2C[C@H]3CN(C(C)=O)C[C@@H]3C2)C1)N1CC[C@H](Cc2cn(-c3ccc(F)cc3C(=O)N(C)C(C)C)c3cncc(Cl)c23)C1 (single isomer, unassigned) [Compound 27c]	0.038	40	
CC[C@@H]([C@H]1C[C@H](N2C[C@H]3CN(C(C)=O)C[C@@H]3C2)C1)N1CC[C@H](Cc2cn(-c3ccc(F)cc3C(=O)N(C)C(C)C)c3cncc(Cl)c23)C1 (single isomer, unassigned) [Compound 27d]	0.013	80	
CC(=O)N1CCN([C@H]2C[C@@H]([C@H](C(C)C)N3CC(Cc4cn(-c5ccc(F)cc5C(=O)N(C)C(C)C)c5cncc(C)c45)C3)C2)CC1 (single isomer, unassigned) [Compound 32b]	0.472	> 1000	
Cc1cncc2c1c(CC1CN([C@@H](C(C)C)[C@H]3C[C@@H](N4CCN(S(C)(=O)=O)CC4)C3)C1)cn2-c1ccc(F)cc1C(=O)N(C)C(C)C (single isomer, unassigned) [Compound 34a]	0.019	16	
Cc1cncc2c1c(CC1CN([C@@H](C(C)C)[C@H]3C[C@H](N4CCN(S(C)(=O)=O)CC4)C3)C1)cn2-c1ccc(F)cc1C(=O)N(C)C(C)C (single isomer, unassigned) [Compound 34b]	0.092	25	
CC(=O)N1C[C@@H]2CN([C@H]3C[C@H]([C@@H](C(C)C)N4CC(Cc5cn(-c6ccc(F)cc6C(=O)N(C)C(C)C)c6cncc(Cl)c56)C4)C3)C[C@H]2C1 (single isomer, unassigned) [Compound 39b]	0.052	35	
CC(=O)N1C[C@@H]2CN([C@H]3C[C@@H](C(C(C)C)N4CC(Cc5cn(-c6ccc(F)cc6C(=O)N(C)C(C)C)c6cncc(Cl)c56)C4)C3)C[C@H]2C1 (single isomer, unassigned) [Compound 40a]	0.841	~540	
CC(=O)N1C[C@@H]2CN([C@H]3C[C@H](C(C(C)C)N4CC(Cc5cn(-c6ccc(F)cc6C(=O)N(C)C(C)C)c6cncc(Cl)c56)C4)C3)C[C@H]2C1 (single isomer, unassigned) [Compound 40b]	0.182	~680	
